Measured values taken from EP0573883A1, “Utilization of 3 substituted aryl-5-alkyl-isoxazole-4-carboxylic acid derivatives against endoparasites new 3-substituted aryl-5-alkyl-isoxazole-4-carboxylic acid derivatives and process for their preparation” (BAYER AG, priority 1992, dated 1993).

Columns and labels:
[1] = tested on: Trichostrongylus colubriformis; assay: In vivo nematode test, Trichostrongylus colubriformis / sheep (faecal egg count before and after treatment); conditions: experimentally infected sheep (Schaf), treated after the prepatent period, pure active substance in gelatin capsules, oral, dose giving complete cessation of egg excretion, read-out: Dosis effectiva
Excerpt: Trichostrongylus colubriformis / Schaf
Experimentell mit Trichostrongylus colubriformis infizierte Schafe wurden nach Ablauf der Präpatenzzeit des Parasiten behandelt. Die Wirkstoffe wurden als reiner Wirkstoff in Gelatinekapseln oral appliziert.
(§1) Der Wirkungsgrad wird dadurch bestimmt, daß man die mit dem Kot ausgeschiedenen Wurmeier vor und nach der Behandlung quantitativ auszählt.
(§2) Ein völliges Sistieren der Eiausscheidung nach der Behandlung bedeutet, daß die Würmer abgetrieben wurden oder so geschädigt sind, daß sie keine Eier mehr produzieren (Dosis effectiva).
(§3) Geprüfte Wirkstoffe und wirksame Dosierungen (Dosis effectiva) sind aus der nachfolgenden Tabelle ersichtlich.

Haemonchus contortus = assay: In vivo nematode test, Haemonchus contortus / sheep (faecal egg count before and after treatment); conditions: experimentally infected sheep (Schaf), treated after the prepatent period, pure active substance in gelatin capsules, oral, dose giving complete cessation of egg excretion, read-out: Dosis effectiva
Excerpt: Haemonchus contortus / Schaf
Experimentell mit Haemonchus contortus infizierte Schafe wurden nach Ablauf der Präpatenzzeit des Parasiten behandelt. Die Wirkstoffe wurden als reiner Wirkstoff in Gelatinekapseln oral appliziert.
as §1, §2, §3

Compound	minimal effective dose [1]	minimal effective dose (Haemonchus contortus)
Cc1ccccc1NC(=O)c1c(-c2c(Cl)cccc2Cl)noc1C [Beispiel 116]	5 mg/kg	10 mg/kg
Cc1onc(-c2c(Cl)cccc2Cl)c1C(=O)Oc1ccc(Cl)cc1 [Beispiel 62]	10 mg/kg	10 mg/kg
Cc1ccccc1NC(=O)c1c(-c2c(F)cccc2Cl)noc1C [Beispiel 221]		5 mg/kg
Cc1ccc(NC(=O)c2c(-c3c(Cl)cccc3Cl)noc2C)cc1 [Beispiel 119]	10 mg/kg	5 mg/kg
CCCCCCCCCCCCCCCCCCNC(=O)c1c(-c2c(Cl)cccc2Cl)noc1C [Beispiel 83]	10 mg/kg	10 mg/kg
Cc1onc(-c2c(F)cccc2Cl)c1C(=O)Nc1ccc(Cl)cc1F [Beispiel 230]	5 mg/kg	10 mg/kg
Cc1onc(-c2c(Cl)cccc2Cl)c1C(=O)Nc1cc(F)cc(F)c1 [Beispiel 103]		10 mg/kg
Cc1ccc(OC(=O)c2c(-c3c(Cl)cccc3Cl)noc2C)cc1 [Beispiel 59]	5 mg/kg	10 mg/kg
CCCCCCCCCCCCCCCCCCNC(=O)c1c(-c2c(Cl)cccc2Cl)noc1CC [Beispiel 1, N-Oktadecyl-3-(2,6-dichlor-phenyl)-5-ethyl-isoxazol-4-carbonsäureamid]	10 mg/kg	5 mg/kg
CCc1onc(-c2c(Cl)cccc2Cl)c1C(=O)Nc1ccc(SC(F)(F)F)cc1 [Beispiel 127]	5 mg/kg	10 mg/kg
